Experimental data as given in patent US20200353107A1, “IN VIVO IMAGING OF TUMOR INFILTRATION LEUKOCYTES” (STC.UNM, priority 2017, published 2020).

Legend:
[1] = molecular target: T1, LFA-1 receptor (Mus musculus, UniProt P24063); assay: SPECT/CT imaging of mice after intravenous injection of the radioligand; assay type: in vivo
T1 construct: Leukocyte function-associated antigen-1 (LFA-1) receptors are normally expressed by all white blood cells; from tissue; host or cells: live mice (leukocytes in vivo)
T1 sequence (P24063 24-1162): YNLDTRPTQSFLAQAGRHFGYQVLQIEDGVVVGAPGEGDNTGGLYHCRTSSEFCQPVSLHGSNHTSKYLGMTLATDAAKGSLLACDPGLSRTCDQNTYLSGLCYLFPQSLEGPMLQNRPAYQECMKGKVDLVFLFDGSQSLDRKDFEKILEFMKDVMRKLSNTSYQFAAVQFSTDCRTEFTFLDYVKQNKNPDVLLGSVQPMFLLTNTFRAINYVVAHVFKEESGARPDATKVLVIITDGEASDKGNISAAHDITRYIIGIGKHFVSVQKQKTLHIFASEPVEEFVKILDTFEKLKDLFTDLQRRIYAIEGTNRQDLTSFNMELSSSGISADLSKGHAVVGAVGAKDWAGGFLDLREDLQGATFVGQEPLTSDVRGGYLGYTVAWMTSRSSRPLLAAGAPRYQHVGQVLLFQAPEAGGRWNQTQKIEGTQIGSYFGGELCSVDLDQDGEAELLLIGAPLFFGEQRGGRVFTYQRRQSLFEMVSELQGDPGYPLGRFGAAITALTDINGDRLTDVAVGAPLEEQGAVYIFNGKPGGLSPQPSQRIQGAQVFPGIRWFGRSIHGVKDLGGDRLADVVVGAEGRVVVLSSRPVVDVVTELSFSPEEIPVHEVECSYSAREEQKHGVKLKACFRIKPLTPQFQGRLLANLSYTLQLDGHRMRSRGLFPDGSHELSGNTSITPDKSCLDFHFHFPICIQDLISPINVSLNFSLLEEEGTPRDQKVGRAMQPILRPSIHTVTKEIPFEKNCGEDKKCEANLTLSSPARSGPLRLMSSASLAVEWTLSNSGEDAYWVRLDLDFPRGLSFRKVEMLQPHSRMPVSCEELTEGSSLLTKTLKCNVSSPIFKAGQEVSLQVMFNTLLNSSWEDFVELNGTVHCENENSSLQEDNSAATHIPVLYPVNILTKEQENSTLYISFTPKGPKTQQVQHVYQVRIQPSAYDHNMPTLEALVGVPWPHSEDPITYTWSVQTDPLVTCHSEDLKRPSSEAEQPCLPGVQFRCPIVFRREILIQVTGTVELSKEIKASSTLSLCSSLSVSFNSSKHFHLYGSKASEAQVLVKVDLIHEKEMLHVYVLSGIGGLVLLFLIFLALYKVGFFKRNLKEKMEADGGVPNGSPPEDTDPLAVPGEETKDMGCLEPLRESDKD
T1 sequence (P11835 24-771 partner): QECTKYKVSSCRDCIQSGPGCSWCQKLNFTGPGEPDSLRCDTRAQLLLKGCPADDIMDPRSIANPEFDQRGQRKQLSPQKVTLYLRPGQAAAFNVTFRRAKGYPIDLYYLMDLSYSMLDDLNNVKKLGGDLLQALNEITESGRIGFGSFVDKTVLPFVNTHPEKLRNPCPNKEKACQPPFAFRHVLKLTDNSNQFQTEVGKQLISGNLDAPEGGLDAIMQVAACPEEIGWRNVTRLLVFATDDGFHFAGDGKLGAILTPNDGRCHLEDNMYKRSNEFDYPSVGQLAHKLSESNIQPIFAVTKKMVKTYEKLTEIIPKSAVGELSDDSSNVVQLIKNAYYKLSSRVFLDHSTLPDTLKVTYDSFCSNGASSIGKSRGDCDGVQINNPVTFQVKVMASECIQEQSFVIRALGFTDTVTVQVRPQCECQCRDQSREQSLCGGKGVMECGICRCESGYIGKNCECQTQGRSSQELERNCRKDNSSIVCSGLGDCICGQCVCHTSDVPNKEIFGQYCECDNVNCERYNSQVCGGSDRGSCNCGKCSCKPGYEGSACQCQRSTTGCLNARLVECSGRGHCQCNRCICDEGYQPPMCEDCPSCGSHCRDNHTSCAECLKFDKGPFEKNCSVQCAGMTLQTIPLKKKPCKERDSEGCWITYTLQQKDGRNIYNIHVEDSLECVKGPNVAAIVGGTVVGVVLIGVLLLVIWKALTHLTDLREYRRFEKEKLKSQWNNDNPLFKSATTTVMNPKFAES
Description: Mice are imaged with the Bioscan NanoSPECT/CT imaging system. Dynamic images are obtained immediately following injection of ˜750 uCi of ^111In-ROTA-alkylamino-NorBIRT intravenously. Static images are also obtained at 2, 4, and 24 hours post injection. Images are individually characterized.

[2] = Biodistribution study (gross dissection and tissue harvest); assay type: in vivo, mice; settings: dissection at 18 and 24 hrs post-inoculation
Description: […] Results are evaluated as the percent injected dose per gram of tissue. The organs assessed are the heart, blood, stomach, liver, spleen, adrenals, kidneys, bone, muscle, bladder, testes, as well as the abcess or site of infection.

^111In-DOTA-alkylamino-NorBIRT [^111In-alkylaminoNorBIRT]
uptake/retention at the tumor, early images ([1]; 5 minutes post-injection): high concentrations | focal retention in other tissues ([1]; SPECT/CT images): no focal retention in any other tissues | radioactivity in the bladder ([1]; SPECT/CT images): prompt and significant radioactivity in the bladder | uptake in the tumor in SPECT/CT images ([1]; SPECT/CT images, mice, i.v.): focal uptake in the tumor | persistence of focal tumor uptake ([1]; all time points, including 24 hours post-injection): persists at all time points | urinary excretion in SPECT/CT images ([1]; as soon as 5 minutes post-injection and at all subsequent time points): prompt and significant urinary excretion | selectivity as imaging probe for LFA-1 receptor expression ([1]; in vivo SPECT/PET imaging of tumor sites): highly selective imaging probes | agreement of biodistribution data with image-based pharmacokinetic data [2]: correlate well with image-based pharmacokinetic data
